Source: patent US20250339567A1, “COMPOUNDS WITH IMPROVED PHARMACOKINETICS FOR IMAGING AND THERAPY OF CANCER” (priority 2019, published 2025)
Read-outs that look alike come from different tables or passages of the source. Starred links: 1 amine or outer side, 2 acyl side, 3 side chain; linkers in the order of their positions; H or OH if unused. Non-standard residues stand in square brackets, D forms with d. Residues, ends and D or L forms follow the SMILES beside them. *: point of attachment. X4 = O=C(O)CN1CCN(CC(=O)O)CCN(CC(=O)NCc2ccc(NC(=O)COCC(=O)*)cc2)CCN(CC(=O)O)CC1; DOTA = O=C(O)CN1CCN(CC(=O)O)CCN(CC(=O)*)CCN(CC(=O)O)CC1; Sta = CC(C)C[C@H](N)[C@@H](O)CC(=O)O; Bta = N[C@@H](Cc1csc2ccccc12)C(=O)O; X1 = O=C(CN1CCC(N[*:1])CC1)[*:2]; NHCH(iBu)2 = CC(C)CC(CC(C)C)N*; hSer = N[C@@H](CCO)C(=O)O

Legend:
[1] = target: T1, GRPR (Homo sapiens, UniProt P30550); experiment: Determination of GRPR affinity (IC50), competition with [D-3-[125I]I-Tyr6]MJ9 on PC-3 cells; format: binding
T1 construct: endogenous in cells; host or cells: PC-3 cells
Procedure: The reference ligand for IC50 studies ([D-3-[^125I]I-Tyr^6]MJ9) is prepared according to a previously published procedure. Briefly, 0.2 mg of [D-Tyr^6]MJ9 are dissolved in 20 μL Tracepur water and 280 μL TRIS buffer (25 mm TRIS HCl, 0.4 M NaCl, pH=7.9). After addition of the solution to a vial containing 150 μg Iodo-Gen® (1,3,4,6-Tetrachloro-3α,6α-diphenylglycouril, surface-bound), 5.0 μL (16 MBq) [^125I]Nal(74 TBq/mmol, 3.1 GBq/mL, 40 mM NaOH, Hartmann Analytic, Braunschweig, Germany) are added.
The GRPR-positive PC-3 cells are cultured in Dublecco modified Eagle medium/Nutrition Mixture F-12 with Glutamax-I (1:1) (Invitrigon), supplemented with 10% fetal calf serum and maintained at 37° C. in a humidified 5% CO2 atmosphere.
After removal of the culture medium, the cells are washed once with 500 μL of HBSS (Hank's balanced salt solution, Biochrom, Berlin, Germany, with addition of 1% bovine serum albumin (BSA)) and left in 200 μL HBSS (1% BSA) for 9 min at room temperature for equilibration. Next, 25 μL per well of solutions, containing either HBSS (1% BSA) as control or the respective ligand in increasing concentration (10^−10 M-10^−4 M in HBSS), are added with subsequent addition of 25 μL of [D-3-[^125I]I-Tyr^6]MJ9 (2.0 nM) in HBSS (1% BSA).
All experiments are performed in triplicate for each concentration. After 2 h incubation at room temperature, the experiment is terminated by removal of the medium and consecutive rinsing with 300 μL of HBSS. The media of both steps are combined in one fraction and represent the amount of free radiolabeled reference. Afterwards, the cells are lysed with 300 μL of 1 M NaOH for at least 15 min and united with the 300 μL NaOH of the following washing step. Quantification of bound and free radiolabeled reference is accomplished in a γ-counter.
IC50 determination for each ligand was repeated twice.

[2] = n-Octanol-PBS distribution coefficient, log D7.4; format: physicochemical; conditions: 99mTc-labeled; n-octanol/PBS pH 7.4
Procedure: Approximately 1 MBq of the labeled tracer was dissolved in 1 mL of a 1:1 mixture (v/v) of phosphate buffered saline (PBS, pH=7.4) and n-octanol in an Eppendorf tube. After vigorous mixing of the suspension for 3 min at room temperature, the vial was centrifuged at 9000 rpm for 5 min (Biofuge 15, Heraus Sepatech, Osterode, Germany) and 200 μL aliquots of both layers were measured in a γ-counter. The experiment was repeated at least four times.

[3] = Plasma studies: metabolic stability in vitro in human plasma (radio RP-HPLC); format: in vitro ADME; conditions: Table 1C; 177Lu-labeled, 37° C., 72 ± 2 h; in % (unit assumed)
Procedure: Metabolic stability in vitro was determined applying a procedure published by Linder et al. that was slightly modified. Immediately after labeling, human (200 μL) or murine (100 μL) plasma was added and the mixture was incubated at 37° C. for 72±2 h (or 6±0.5 h). Proteins were precipitated by treatment with ice-cold EtOH (150 μL [human], 100 μL [murine]) and ice-cold MeCN (450 μL [human], 300 μL [murine]), followed by centrifugation for 20 min at 13000 rpm. The supernatants were decanted and further analyzed using radio RP-HPLC. […]

[4] = read-out: IC50 [nM] ± SD (n = 3), ^177Lu-labeled, Table 1C, GRPR affinity

T1 sequence (P30550 whole entry): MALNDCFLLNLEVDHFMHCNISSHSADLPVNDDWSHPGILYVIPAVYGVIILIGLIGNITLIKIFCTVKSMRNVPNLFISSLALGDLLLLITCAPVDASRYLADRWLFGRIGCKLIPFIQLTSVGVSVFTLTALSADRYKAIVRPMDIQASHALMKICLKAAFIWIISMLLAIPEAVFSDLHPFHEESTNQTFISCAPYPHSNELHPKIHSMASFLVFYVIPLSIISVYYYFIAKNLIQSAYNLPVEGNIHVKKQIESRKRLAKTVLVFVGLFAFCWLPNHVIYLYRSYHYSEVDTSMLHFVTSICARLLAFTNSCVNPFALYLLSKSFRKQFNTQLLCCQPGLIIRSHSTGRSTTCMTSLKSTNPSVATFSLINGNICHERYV

| Compound | IC50 [1, 4] | Amount of intact tracer after incubation in human plasma for 72 ± 2 h (n = 2) [3] | further results |
| --- | --- | --- | --- |
| CC(C)C[C@H](NC(=O)C[C@H](O)[C@H](CC(C)C)NC(=O)[C@H](Cc1c[nH]cn1)NC(=O)CNC(=O)[C@@H](NC(=O)[C@H](C)NC(=O)[C@H](Cc1c[nH]c2ccccc12)NC(=O)[C@H](CCC(N)=O)NC(=O)[C@@H](Cc1ccccc1)NC(=O)CN1CCC(NC(=O)[C@H](CC(=O)O)NC(=O)C(CNCCN)CNCCN)CC1)C(C)C)C(N)=O [Ligand N4-asp-MJ9] | – | – | IC50 ([1]; IC50 [nM] ± SD (n = 3), Table 5, non-labeled N4 ligands, [D-3-[125I]I-Tyr6]MJ9 (c = 0.2 nM), 2 h, r.t.): 3.73 ± 0.78 nM; log D7.4 (n = 6), ^99mTc-labeled [2]: −1.86 ± 0.03 |
| CC(C)CC(CC(C)C)NC(=O)[C@H](Cc1c[nH]cn1)NC(=O)CNC(=O)[C@@H](NC(=O)[C@H](C)NC(=O)[C@H](Cc1csc2ccccc12)NC(=O)[C@H](CCC(N)=O)NC(=O)[C@@H](Cc1ccccc1)NC(=O)COCC(=O)Nc1ccc(CNC(=O)CN2CCN(CC(=O)O)CCN(CC(=O)O)CCN(CC(=O)O)CC2)cc1)C(C)C [[Bta^8]NeoBOMB1] (X4-[dF]Q[Bta]AVGH-{NHCH(iBu)2}; N-terminus and C-terminus assumed) | 13 ± 3 nM | 36.2 ± 3.8 | – |
| CC(C)CC(CC(C)C)NC(=O)[C@H](Cc1c[nH]cn1)NC(=O)CNC(=O)[C@@H](NC(=O)[C@H](C)NC(=O)[C@H](Cc1c[nH]c2ccccc12)NC(=O)[C@H](CCO)NC(=O)[C@@H](Cc1ccccc1)NC(=O)COCC(=O)Nc1ccc(CNC(=O)CN2CCN(CC(=O)O)CCN(CC(=O)O)CCN(CC(=O)O)CC2)cc1)C(C)C [[Hse^7]NeoBOMB1] (X4-[dF][hSer]WAVGH-{NHCH(iBu)2}; N-terminus and C-terminus assumed) | 8.3 ± 0.7 nM | 57.4 ± 2.1 | – |
| CC(C)C[C@H](NC(=O)C[C@H](O)[C@H](CC(C)C)NC(=O)[C@H](Cc1c[nH]cn1)NC(=O)CNC(=O)[C@@H](NC(=O)[C@H](C)NC(=O)[C@H](Cc1csc2ccccc12)NC(=O)[C@H](CCC(N)=O)NC(=O)[C@@H](Cc1ccccc1)NC(=O)CN1CCC(NC(=O)CN2CCN(CC(=O)O)CCN(CC(=O)O)CCN(CC(=O)O)CC2)CC1)C(C)C)C(N)=O [[^natGa]DOTA-[Bta^8]MJ9, metal not drawn] ({DOTA}-[X1][dF]Q[Bta]AVGH[Sta]L-NH2) | – | – | IC50 ([1]; IC50 ± SD (n = 3), Table 3, [D-3-[125I]I-Tyr6]MJ9 (c = 0.2 nM), 2 h, r.t., HBSS + 1% BSA): 3.06 ± 0.15 nM |
| CC(C)C[C@H](NC(=O)C[C@H](O)[C@H](CC(C)C)NC(=O)[C@H](Cc1c[nH]cn1)NC(=O)CNC(=O)[C@@H](NC(=O)[C@H](C)NC(=O)[C@H](Cc1c[nH]c2ccccc12)NC(=O)[C@H](CCO)NC(=O)[C@@H](Cc1ccccc1)NC(=O)CN1CCC(NC(=O)CN2CCN(CC(=O)O)CCN(CC(=O)O)CCN(CC(=O)O)CC2)CC1)C(C)C)C(N)=O [[^natGa]DOTA-[Hse^7]MJ9, metal not drawn] | – | – | IC50 ([1]; read-out: IC50 ± SD (n = 3), Table 3, [D-3-[125I]I-Tyr6]MJ9 (c = 0.2 nM), 2 h, r.t., HBSS + 1% BSA): 12.2 ± 0.2 nM |
| CC(C)CC(CC(C)C)NC(=O)[C@H](Cc1c[nH]cn1)NC(=O)CNC(=O)[C@@H](NC(=O)[C@H](C)NC(=O)[C@](C)(Cc1c[nH]c2ccccc12)NC(=O)[C@H](CCC(N)=O)NC(=O)[C@@H](Cc1ccccc1)NC(=O)COCC(=O)Nc1ccc(CNC(=O)CN2CCN(CC(=O)O)CCN(CC(=O)O)CCN(CC(=O)O)CC2)cc1)C(C)C [[α-Me-Trp^8]NeoBOMB1] | 6.8 ± 1.2 nM | 70.7 ± 2.8 | – |
